Values of other authors, collected in patent publication US9352019B2, “Using heat shock proteins to improve the therapeutic benefit of a non-vaccine treatment modality” (University of Connecticut Health Center, priority 2002, dated 2016).
Structures can show the parent of a compound that is named as a salt.

Test system: CML
Conditions: Gleevec alone; Druker et al., 2002

For `Cc1ccc(NC(=O)c2ccc(CN3CCN(C)CC3)cc2)cc1Nc1nccc(-c2cccnc2)n1` [Gleevec™, imatinib mesylate], the “patients achieving responses using these same criteria” value is listed as “less than 10% of patients”.
